Laboratory results reported in patent US20100255530A1, “BACTERIA DETECTION AND/OR IDENTIFICATION MEDIUM” (BIOMERIEUX, priority 2007, published 2010).

System: Citrobacter freundii 009
Assay: Impact of cellobiose on colony coloration, Citrobacter freundii 009
Type: cell-based
Conditions: cellobiose 0.5 g/l in medium combining the glucuronide and galactoside substrates
Description: The coloration of these colonies is noted.

In the case of `O=C[C@H](O)[C@@H](O)[C@H](O[C@@H]1O[C@H](CO)[C@@H](O)[C@H](O)[C@H]1O)[C@H](O)CO` [cellobiose], the “distinction of the Citrobacter 009 strain from the E. coli strains” value is reported as “makes it possible to distinguish the Citrobacter 009 strain more clearly from the E. coli strains”.
